According to patent US20230406865A1, “CRYSTAL FORM OF FREE BASE OF INHIBITOR CONTAINING BICYCLIC RING DERIVATIVE AND PREPARATION METHOD AND APPLICATION OF CRYSTAL FORM” (SHANGHAI HANSOH BIOMEDICAL CO., LTD., priority 2020, published 2023):
pIC50: −log10 of the molar value.

What was measured:
Ba/F3 KIF5B-RET cells = biological target: T1, Ba/F3 KIF5B-RET cells (Homo sapiens, UniProt P07949); test: Inhibition of proliferation of Ba/F3 KIF5B-RET cells (CellTiter-Glo); format: cell-based; conditions: 72 to 144 hours
T1 construct: fused on or other part: P33176 (Kinesin-1 heavy chain)
How it was run: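 Cells plated overnight, then exposed to compound dilutions in DMSO/medium at 37° C, 5% CO2 for 72 to 144 hours. Viability read by CellTiter-Glo luminescence; IC50 from inhibition rates fitted by nonlinear regression.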

KDR kinase = biological target: T2, KDR kinase (Homo sapiens, UniProt P35968); test: HTRF kinase activity inhibition, KDR; format: biochemical; conditions: for pIC50: HTRF, ATP at Km; for Ratio (KDR/RET): KDR IC50 / RET IC50
T2 construct: purchased Carna 08-191
How it was run: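 Inhibition of KDR kinase activity measured by homogeneous time-resolved fluorescence with a tyrosine-kinase KinEASE substrate kit and ATP.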

[1] = system: subcutaneous transplanted tumor of Ba/F3 KIF5B-RET cells; test: Tumor suppression on Ba/F3 KIF5B-RET transplanted tumor model; format: in vivo, BALB/c nude mice
Protocol: Ba/F3 KIF5B-RET cells were removed from the cell bank, resuscitated and added to RPMI1640 medium (RPMI1640+10% FBS+1% Glu+1% P/S), then cultured in a CO2 incubator (incubator temperature was 37° C., CO2 concentration was 5%), and when the cell number expanded to the required number for in vivo inoculation, Ba/F3 KIF5B-RET cells were collected. The cells were counted with an automatic cell counter, resuspended with PBS according to the count results, made into a cell suspension (density was 2×10^7/mL), and placed in an ice box for use.
Female BALB/c nude mice aged 6-8 weeks were used, weighing about 18-22 g. Mice were reared in SPF animal room, and were reared in a single cage with 5 mice in each cage. All cages, bedding and water were sterilized at high temperature before use, and all animals were allowed to eat and drink freely. Nude mice were labeled with disposable universal ear tags for mice and rats before the start of the experiment, and the skin of the inoculation site was disinfected with 75% medical alcohol before inoculation. 0.1 mL (containing 2*10^6 cells) of Ba/F3 KIF5B-RET cells were inoculated subcutaneously on the right back of each mouse. Group administration was initiated when the tumor volume reached 60-200 mm^3, with 5 mice in each group. Each test compound was administered orally twice a day for 14 days. The tumor volume and the weight of mice were measured twice a week, and the tumor TGI (%) was calculated.
The tumor volume (mm^3) was calculated as V=0.5*D*d*d, where D and d were the long and short diameters of the tumor, respectively.
When there was no tumor regression, TGI (%)=[(1-(mean tumor volume at the end of the administration in a treatment group−mean tumor volume at the start of administration in the treatment group))/(mean tumor volume at the end of treatment in the solvent control group−mean tumor volume at the start of treatment in the solvent control group)]×100%.
When there was tumor regression, TGI (%)=[1-(mean tumor volume at the end of administration in a treatment group−mean tumor volume at the beginning of administration in the treatment group)/mean tumor volume at the beginning of administration in the treatment group]×100%.

RET kinase = biological target: T3, RET kinase (Homo sapiens, UniProt P07949); test: HTRF kinase activity inhibition, RET wild-type; format: biochemical; conditions: ATP at Km
T3 construct: purchased Carna 08-159
How it was run: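 HTRF (KinEASE-TK) kinase assay with recombinant RET wild-type, RET V804M, RET V804L and KIF5B-RET enzymes plus ATP.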

[2] = system: TT cells (MTC, RET C634W); test: Inhibition of proliferation of TT cells (CellTiter-Glo, 72 h); format: cell-based; conditions: Homo sapiens
How it was run: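 TT cells seeded overnight, then exposed to compound dilutions for 72 h at 37 °C, 5% CO2, with a solvent control. Viability read by CellTiter-Glo luminescence; IC50 from nonlinear regression of inhibition rate versus concentration.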

[3] = Balb/C mouse pharmacokinetics, oral 5 mg/kg; format: in vivo, Balb/C mice; conditions: male, p.o. 5 mg/kg, plasma; for MRT: read-out: Average residence time MRT; for Cmax: read-out: Blood concentration Cmax; for AUC(0-t): read-out: Curve area AUC0-t; for AUC(0-inf): read-out: Curve area AUC0-∞; for half-life: read-out: Half-life t1/2 (converted); for Tmax: read-out: Peak time tmax
How it was run: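 Male Balb/C mice (6 per compound) were fasted overnight and dosed in 0.5% CMC-Na (1% Tween80) solution or suspension. EDTA-K2 plasma was sampled at 0, 0.5, 1, 2, 4, 6, 8 and 24 h. Compound levels were measured by LC/MS/MS after acetonitrile precipitation, and PK parameters were derived from the plasma profiles.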

RET M918T = biological target: T4, RET M918T (Homo sapiens, UniProt P07949, M918T); test: HTRF kinase activity inhibition, RET M918T; format: biochemical; conditions: ATP at Km
T4 construct: purchased Carna 08-508
Description: 2.2 Experimental Reagents: • RET enzyme was purchased from Carna Company, and the article number was 08-159; • RET M918T enzyme was purchased from Carna Company, and the article number was 08-508; • KIF5B-RET was purchased from SignalChem Company, the article number was R02-19FG-05; • CCDC6-RET was purchased from SignalChem Company, the article number was R02-19BG-05; • RET V804M enzyme was purchased from Thermofisher Company, and the article number was PV6223; • RET V804L enzyme was purchased from Thermofisher Company, and the article number was PV4397; • HTRF KinEASE-TK kit was purchased from Cisbio Company, and the article number was 62TK0PEC; • ATP was purchased from Thermofisher Company, and the article number was PV3227; • 384-well plate was purchased from PerkinElmer Company, and the article number was 6007290.
In this experiment, a homogeneous time-resolved fluorescence (HTRF) method was used for the detection of compounds on RET kinase activity.

T3 sequence (P07949 29-1114): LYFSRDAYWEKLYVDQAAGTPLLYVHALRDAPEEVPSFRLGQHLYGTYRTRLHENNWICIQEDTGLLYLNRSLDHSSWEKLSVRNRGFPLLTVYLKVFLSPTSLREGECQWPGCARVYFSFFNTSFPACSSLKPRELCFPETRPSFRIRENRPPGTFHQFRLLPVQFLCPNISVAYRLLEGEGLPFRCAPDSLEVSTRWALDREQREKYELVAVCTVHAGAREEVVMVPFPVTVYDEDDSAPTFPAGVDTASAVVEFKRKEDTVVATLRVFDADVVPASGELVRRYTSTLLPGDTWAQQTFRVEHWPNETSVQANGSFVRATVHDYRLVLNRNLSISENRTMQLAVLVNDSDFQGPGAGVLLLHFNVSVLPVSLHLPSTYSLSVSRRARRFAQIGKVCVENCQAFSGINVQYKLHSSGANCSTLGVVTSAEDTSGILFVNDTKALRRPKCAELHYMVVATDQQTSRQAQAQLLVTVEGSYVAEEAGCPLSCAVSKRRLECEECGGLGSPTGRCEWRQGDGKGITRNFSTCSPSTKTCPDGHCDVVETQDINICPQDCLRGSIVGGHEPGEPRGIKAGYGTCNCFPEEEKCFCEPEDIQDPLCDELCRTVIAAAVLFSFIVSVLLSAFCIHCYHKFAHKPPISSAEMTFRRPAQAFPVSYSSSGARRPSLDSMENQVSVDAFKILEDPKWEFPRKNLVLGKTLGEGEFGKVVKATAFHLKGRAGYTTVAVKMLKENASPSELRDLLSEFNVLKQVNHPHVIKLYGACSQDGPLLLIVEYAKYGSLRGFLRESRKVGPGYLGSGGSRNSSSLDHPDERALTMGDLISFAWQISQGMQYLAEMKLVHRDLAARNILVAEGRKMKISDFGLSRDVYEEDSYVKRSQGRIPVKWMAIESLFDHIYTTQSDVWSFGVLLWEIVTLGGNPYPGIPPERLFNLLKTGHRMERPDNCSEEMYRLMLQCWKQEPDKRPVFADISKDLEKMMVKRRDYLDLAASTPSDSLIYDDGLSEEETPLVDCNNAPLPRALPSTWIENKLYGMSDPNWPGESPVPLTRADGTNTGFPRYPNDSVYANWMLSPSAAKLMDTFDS
T4 sequence (P07949 29-1114 M918T): as the sequence (P07949 29-1114) above, with M890T counted along it
T1 sequence (P07949 whole entry, change not shown, the tested form may be a part): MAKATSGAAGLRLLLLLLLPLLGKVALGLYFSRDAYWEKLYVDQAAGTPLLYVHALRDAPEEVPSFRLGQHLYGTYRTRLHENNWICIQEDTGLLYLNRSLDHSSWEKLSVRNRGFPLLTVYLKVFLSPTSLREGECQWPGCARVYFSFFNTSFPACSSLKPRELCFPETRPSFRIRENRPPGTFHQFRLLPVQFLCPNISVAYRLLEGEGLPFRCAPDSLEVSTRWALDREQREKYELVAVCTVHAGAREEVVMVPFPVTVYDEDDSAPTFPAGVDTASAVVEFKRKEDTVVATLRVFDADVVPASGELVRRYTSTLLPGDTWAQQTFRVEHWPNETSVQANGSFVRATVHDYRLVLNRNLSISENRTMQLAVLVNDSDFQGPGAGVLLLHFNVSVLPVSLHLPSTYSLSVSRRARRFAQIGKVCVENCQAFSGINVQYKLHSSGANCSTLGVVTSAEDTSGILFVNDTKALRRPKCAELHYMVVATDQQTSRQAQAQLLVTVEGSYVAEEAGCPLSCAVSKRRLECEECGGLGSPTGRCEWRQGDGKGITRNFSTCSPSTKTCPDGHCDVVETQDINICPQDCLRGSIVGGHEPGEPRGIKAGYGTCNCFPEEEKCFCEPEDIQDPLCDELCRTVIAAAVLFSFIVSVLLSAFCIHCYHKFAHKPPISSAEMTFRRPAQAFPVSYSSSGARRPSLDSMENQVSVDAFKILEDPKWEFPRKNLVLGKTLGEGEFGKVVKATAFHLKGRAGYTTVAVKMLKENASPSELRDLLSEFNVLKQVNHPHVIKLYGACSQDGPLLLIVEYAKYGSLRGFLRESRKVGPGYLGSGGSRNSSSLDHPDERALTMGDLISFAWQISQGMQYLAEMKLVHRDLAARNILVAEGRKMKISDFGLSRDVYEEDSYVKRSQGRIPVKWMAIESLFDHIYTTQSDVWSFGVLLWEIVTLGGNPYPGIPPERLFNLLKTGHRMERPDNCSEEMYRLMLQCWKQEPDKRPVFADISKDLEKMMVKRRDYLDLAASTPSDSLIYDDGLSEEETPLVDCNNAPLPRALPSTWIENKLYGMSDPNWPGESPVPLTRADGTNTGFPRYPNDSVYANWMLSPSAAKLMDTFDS
T2 sequence (P35968 20-1356): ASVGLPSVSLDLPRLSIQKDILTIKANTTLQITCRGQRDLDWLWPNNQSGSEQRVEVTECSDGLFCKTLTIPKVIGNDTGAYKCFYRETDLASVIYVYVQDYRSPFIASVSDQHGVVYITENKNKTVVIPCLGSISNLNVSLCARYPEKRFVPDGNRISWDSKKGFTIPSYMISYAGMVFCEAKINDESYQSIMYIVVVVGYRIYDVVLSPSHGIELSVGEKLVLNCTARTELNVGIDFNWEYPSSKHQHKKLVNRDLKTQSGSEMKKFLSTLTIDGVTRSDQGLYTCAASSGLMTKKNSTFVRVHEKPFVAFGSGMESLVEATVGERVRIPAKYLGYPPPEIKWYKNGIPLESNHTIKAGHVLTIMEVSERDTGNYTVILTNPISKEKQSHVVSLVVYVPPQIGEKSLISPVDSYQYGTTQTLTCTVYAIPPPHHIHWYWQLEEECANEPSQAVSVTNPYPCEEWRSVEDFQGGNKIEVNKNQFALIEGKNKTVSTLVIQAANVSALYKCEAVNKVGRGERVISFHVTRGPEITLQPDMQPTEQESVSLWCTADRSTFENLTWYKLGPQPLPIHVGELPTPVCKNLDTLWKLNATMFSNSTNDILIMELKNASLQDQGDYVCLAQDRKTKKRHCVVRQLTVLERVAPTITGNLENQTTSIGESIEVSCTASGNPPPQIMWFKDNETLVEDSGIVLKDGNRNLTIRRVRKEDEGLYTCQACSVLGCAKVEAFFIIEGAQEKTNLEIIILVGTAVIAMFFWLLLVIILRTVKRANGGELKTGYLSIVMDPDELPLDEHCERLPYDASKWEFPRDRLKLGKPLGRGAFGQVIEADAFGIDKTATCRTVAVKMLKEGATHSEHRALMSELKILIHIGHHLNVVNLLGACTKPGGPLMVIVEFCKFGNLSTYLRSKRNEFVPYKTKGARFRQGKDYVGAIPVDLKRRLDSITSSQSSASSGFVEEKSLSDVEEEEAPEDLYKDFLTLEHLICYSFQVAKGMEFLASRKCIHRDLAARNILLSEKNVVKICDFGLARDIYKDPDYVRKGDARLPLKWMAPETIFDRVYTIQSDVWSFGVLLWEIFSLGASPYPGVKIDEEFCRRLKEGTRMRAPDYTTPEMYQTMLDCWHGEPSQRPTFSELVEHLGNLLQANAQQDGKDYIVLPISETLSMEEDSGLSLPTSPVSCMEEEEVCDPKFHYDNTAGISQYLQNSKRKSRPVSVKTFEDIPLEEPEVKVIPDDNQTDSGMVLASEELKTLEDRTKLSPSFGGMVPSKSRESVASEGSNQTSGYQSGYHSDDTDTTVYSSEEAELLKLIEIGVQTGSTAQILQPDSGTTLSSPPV

SMILES | pIC50 (Ba/F3 KIF5B-RET cells) | pIC50 (KDR kinase) | Ratio (KDR/RET) (KDR kinase) | Tumor volume (Mean ± SD) Day 0 ([1]; 30 mg/kg oral twice a day) | TGI (%) Day 14 ([1]; 30 mg/kg oral twice a day) | Tumor volume (Mean ± SD) Day 14 ([1]; 30 mg/kg oral twice a day) | pIC50 (RET kinase) | pIC50 [2] | MRT [3] | Cmax [3] | AUC(0-t) [3] | AUC(0-inf) [3] | half-life [3] | Tmax [3] | pIC50 (RET M918T) | Tumor volume (Mean ± SD) Day 0 ([1]; 10 mg/kg oral twice a day) | TGI (%) Day 14 ([1]; 10 mg/kg oral twice a day) | Tumor volume (Mean ± SD) Day 14 ([1]; 10 mg/kg oral twice a day)
CC1(NC(=O)c2ncccc2Cl)CCN(c2ccc(-c3cc(OCC4(C#N)CC4)cn4ncc(C#N)c34)cn2)CC1 [Embodiment 92, 3-Chloro-N-(1-(5-(3-cyano-6-((1-cyanocyclopropyl)methoxy)pyrazolo[1,5-a]pyridin-4-yl)pyridin-2-yl)-4-methylpiperidin-4-yl)picolinamide] | 7.49 | 6.73 | 218 | 133.41 ± 18.82 mm^3 | 126.35% | 98.26 ± 33.71 mm^3 | 9.07 | 7.56 | 2.85 h | 9340 ng/mL | 24500 ng·h/mL | 24500 ng·h/mL | 1.7 h | 0.5 h | – | – | – | –
COc1ncc(CN2C3CC2CN(c2ccc(-c4cc(OCC5(C#N)CC5)cn5ncc(C#N)c45)cn2)C3)cc1F [Embodiment 55, 6-((1-Cyanocyclopropyl)methoxy)-4-(6-(6-((5-fluoro-6-methoxypyridin-3-yl)methyl)-3,6-diazabicyclo[3.1.1]heptan-3-yl)pyridin-3-yl)pyrazolo[1,5-a]pyridine-3-carbonitrile] | 7.71 | 7.43 | 121 | – | – | – | 9.51 | 7.54 | 6.51 h | 1940 ng/mL | 21600 ng·h/mL | 22100 ng·h/mL | 4.26 h | 2 h | – | – | – | –
COc1ncc(CN2C3CC2CN(c2ccc(-c4cc(N5CC(C(C)(C)O)C5)cn5ncc(C#N)c45)cn2)C3)cc1F [Embodiment 31, 4-(6-(6-((5-Fluoro-6-methoxypyridin-3-yl)methyl)-3,6-diazabicyclo[3.1.1]heptan-3-yl)pyridin-3-yl)-6-(3-(2-hydroxypropan-2-yl)azetidin-1-yl)pyrazolo[1,5-a]pyridine-3-carbonitrile] | – | 7.64 | 30 | – | – | – | 9.12 | 8.18 | 4.71 h | 3120 ng/mL | 18900 ng·h/mL | 18900 ng·h/mL | 2.66 h | 0.5 h | 9.33 | – | – | –
C#C[C@](C)(O)COc1cc(-c2ccc(N3CC4CC(C3)N4Cc3cnc(OC)c(F)c3)nc2)c2c(C#N)cnn2c1 [Embodiment 65, 4-(6-(6-((5-Fluoro-6-methoxypyridin-3-yl)methyl)-3,6-diazabicyclo[3.1.1]heptan-3-yl)pyridin-3-yl)-6-(((S)-2-hydroxy-2-methylbut-3-yn-1-yl)oxy)pyrazolo[1,5-a]pyridine-3-carbonitrile] | 8.15 | 7.84 | 44 | – | – | – | 9.48 | 7.90 | 5.24 h | 2400 ng/mL | 20200 ng·h/mL | 20300 ng·h/mL | 3.05 h | 2 h | – | 100.40 ± 29.77 mm^3 | 87.71% | 276.69 ± 106.21 mm^3
COc1ccc(CN2C3CC2CN(c2ccc(-c4cc(C#CC(C)(C)N)cn5ncc(C#N)c45)cn2)C3)cn1 [Embodiment 17, 6-(3-Amino-3-methylbut-1-yn-1-yl)-4-(6-(6-((6-methoxypyridin-3-yl)methyl)-3,6-diazabicyclo[3.1.1]heptan-3-yl)pyridin-3-yl)pyrazolo[1,5-a]pyridine-3-carbonitrile] | – | 8.09 | 21 | – | – | – | 9.41 | 7.88 | – | – | – | – | – | – | 9.42 | – | – | –
COc1ncc(CN2C3CC2CN(c2ccc(-c4cc(OCC5(C#N)CCOCC5)cn5ncc(C#N)c45)cn2)C3)cc1F [Embodiment 60, 6-((4-Cyanotetrahydro-2H-pyran-4-yl)methoxy)-4-(6-(6-((5-fluoro-6-methoxypyridin-3-yl)methyl)-3,6-diazabicyclo[3.1.1]heptan-3-yl)pyridin-3-yl)pyrazolo[1,5-a]pyridine-3-carbonitrile] | 7.75 | 6.59 | 445 | – | – | – | 9.24 | 7.55 | 5.56 h | 3080 ng/mL | 28000 ng·h/mL | 28200 ng·h/mL | 3.26 h | 0.5 h | – | – | – | –
COc1ccc(CN2C3CC2CN(c2ccc(-c4cc(OCC(C)(C)C#N)cn5ncc(C#N)c45)cn2)C3)cn1 [Embodiment 9, 6-(2-Cyano-2-methylpropoxy)-4-(6-(6-((6-methoxypyridin-3-yl)methyl)-3,6-diazabicyclo[3.1.1]heptan-3-yl)pyridin-3-yl)pyrazolo[1,5-a]pyridine-3-carbonitrile] | 7.54 | 7.15 | 92 | – | – | – | 9.12 | 7.53 | 5.84 h | 1920 ng/mL | 16100 ng·h/mL | 16400 ng·h/mL | 4.2 h | 0.5 h | – | – | – | –
CC(C)(O)C#Cc1cc(-c2ccc(N3CCC(C)(NC(=O)c4ncccc4Cl)CC3)nc2)c2c(C#N)cnn2c1 [Embodiment 85, 3-Chloro-N-(1-(5-(3-cyano-6-(3-hydroxy-3-methylbut-1-yn-1-yl)pyrazolo[1,5-a]pyridin-4-yl)pyridin-2-yl)-4-methylpiperidin-4-yl)picolinamide] | – | 7.34 | 122 | – | – | – | 9.42 | 8.03 | – | – | – | – | – | – | 9.10 | – | – | –
C#CC(C)(O)COc1cc(-c2ccc(N3CC4CC(C3)N4Cc3ccc(OC)nc3)nc2)c2c(C#N)cnn2c1 (stereo not shown) [Embodiment 62, 6-((2-Hydroxy-2-methylbut-3-yn-1-yl)oxy)-4-(6-(6-((6-methoxypyridin-3-yl)methyl)-3,6-diazabicyclo[3.1.1]heptan-3-yl)pyridin-3-yl)pyrazolo[1,5-a]pyridine-3-carbonitrile] | – | 7.45 | 73 | – | – | – | 9.32 | – | 4.07 h | 2820 ng/mL | 13800 ng·h/mL | 13800 ng·h/mL | 2.4 h | 0.5 h | – | 100.24 ± 27.85 mm^3 | 89.74% | 247.52 ± 85.65 mm^3
